Experimental data reported in patent US12377175B2, “Trifunctional constructs with tunable pharmacokinetics useful in imaging and anti-tumor therapies” (Cornell University, priority 2016, dated 2025).
Where “and” joins values, the source holds several entries; their conditions need not be identical. Equal values may be shown once.

System: LNCaP xenograft tumor-bearing mice
Test: Biodistribution of 225Ac-macropa-RPS-070 in LNCaP xenograft mice
Assay type: in vivo, mouse
Conditions: for Organ distribution, Blood, Mean / Organ distribution, Bone, Mean / Organ distribution, Heart, Mean / Organ distribution, Kidneys, Mean / Organ distribution, Large Intestine, Mean / Organ distribution, Liver, Mean / Organ distribution, Lungs, Mean / Organ distribution, Muscle, Mean / Organ distribution, Pancreas, Mean / Organ distribution, Small Intestine, Mean / Organ distribution, Spleen, Mean / Organ distribution, Stomach, Mean / Organ distribution, Tumor, Mean: n = 5
Procedure: Cell Culture. […] Cell culture supplies were from Invitrogen unless otherwise noted.
Inoculation of Mice with Xenografts. All animal studies were approved by the Institutional Animal Care and Use Committee of Weill Cornell Medicine and were undertaken in accordance with the guidelines set forth by the USPHS Policy on Humane Care and Use of Laboratory Animals. Animals were housed under standard conditions in approved facilities with 12 h light/dark cycles. Food and water was provided ad libitum throughout the course of the studies. Hairless male nu/nu mice were purchased from the Jackson Laboratory. For inoculation in mice, LNCaP cells were suspended at 4×10^7 cells/mL in a 1:1 mixture of PBS:Matrigel (BD Biosciences). Each mouse was injected in the left flank with 0.25 mL of the cell suspension. Biodistributions were conducted when tumors were in the range 100-400 mm^3.
Biodistribution of […] in LNCaP xenograft mice. Fifteen LNCaP xenograft tumor-bearing mice (5 per time point) were injected intravenously with a bolus injection of 85-95 kBq and 100 ng ([…]) of each ligand. The mice were sacrificed by cervical dislocation at 4, 24 and 96 h post injection. A blood sample was removed, and a full biodistribution study was conducted on the following organs (with contents): heart, lungs, liver, small intestine, large intestine, stomach, spleen, pancreas, kidneys, muscle, bone, and tumor. Tissues were weighed and counted on a 2470 Wizard Automatic Gamma Counter (Perkin Elmer). 1% ID/mL samples were counted prior to and following each set of tissue samples to enable decay correction to be undertaken. Counts were corrected for decay and for activity injected, and tissue uptake was expressed as percent injected dose per gram (% ID/g). Standard error measurement was calculated for each data point.

With O=C(O)CC[C@H](NC(=O)N[C@@H](CCCCNC(=O)Nc1cccc(-c2cn(CCOCCOCCOCCOCCOCCOCCC(=O)N[C@@H](CCCCNC(=S)Nc3cc(CN4CCOCCOCCN(Cc5cccc(C(=O)[O-])n5)CCOCCOCC4)nc(C(=O)[O-])c3)C(=O)N[C@@H](CCCCNC(=O)Cc3ccc(I)cc3)C(=O)O)nn2)c1)C(=O)O)C(=O)O.[225Ac+3] [225Ac-macropa-RPS-070] the “Organ distribution, Blood, Mean” value (24 h after i.v. injection) was 0.2908 % ID/g, the “Organ distribution, Bone, Mean” value (24 h after i.v. injection) was 0.9764 % ID/g and the “Organ distribution, Heart, Mean” value (24 h after i.v. injection) was 0.4964 % ID/g. For the same molecule, the “Organ distribution, Kidneys, Mean” value (24 h after i.v. injection) was 4.192 % ID/g, the “Organ distribution, Large Intestine, Mean” value (24 h after i.v. injection) was 0.1315 % ID/g and the “Organ distribution, Liver, Mean” value (24 h after i.v. injection) was 1.364 % ID/g. The “Organ distribution, Lungs, Mean” value (24 h after i.v. injection) was 0.4653 % ID/g, the “Organ distribution, Muscle, Mean” value (24 h after i.v. injection) was 0.5603 % ID/g and the “Organ distribution, Pancreas, Mean” value (24 h after i.v. injection) was 0.3891 % ID/g. For the same molecule, the “Organ distribution, Small Intestine, Mean” value (24 h after i.v. injection) was 0.09473 % ID/g, the “Organ distribution, Spleen, Mean” value (24 h after i.v. injection) was 0.6122 % ID/g and the “Organ distribution, Stomach, Mean” value (24 h after i.v. injection) was 0.1326 % ID/g. The “Organ distribution, Tumor, Mean” value (24 h after i.v. injection) was 8.17 % ID/g, the “Organ distribution, Blood, individual mice 1-5” value (96 h after i.v. injection) was 0.1904 % ID/g and 0.1919 % ID/g and 0.1521 % ID/g and 0.1653 % ID/g and 0.2382 % ID/g and the “Organ distribution, Bone, individual mice 1-5” value (96 h after i.v. injection) was 0.8639 % ID/g and 0.8687 % ID/g and 0.8383 % ID/g and 1.122 % ID/g and 0.8204 % ID/g. For the same molecule, the “Organ distribution, Heart, individual mice 1-5” value (96 h after i.v. injection) was 0.3994 % ID/g and 0.424 % ID/g and 0.4286 % ID/g and 0.4459 % ID/g and 0.456 % ID/g, the “Organ distribution, Kidneys, individual mice 1-5” value (96 h after i.v. injection) was 1.303 % ID/g and 1.3239 % ID/g and 2.004 % ID/g and 1.399 % ID/g and 1.46 % ID/g and the “Organ distribution, Large Intestine, individual mice 1-5” value (96 h after i.v. injection) was 0.04349 % ID/g and 0.09663 % ID/g and 0.04522 % ID/g and 0.04198 % ID/g and 0.03927 % ID/g. For the same molecule, the “Organ distribution, Liver, individual mice 1-5” value (96 h after i.v. injection) was 0.7941 % ID/g and 0.8144 % ID/g and 0.733 % ID/g and 0.7917 % ID/g and 0.7942 % ID/g, the “Organ distribution, Lungs, individual mice 1-5” value (96 h after i.v. injection) was 0.3016 % ID/g and 0.5091 % ID/g and 0.4694 % ID/g and 0.3781 % ID/g and 0.3698 % ID/g and the “Organ distribution, Muscle, individual mice 1-5” value (96 h after i.v. injection) was 0.3022 % ID/g and 0.5249 % ID/g and 0.2509 % ID/g and 0.2982 % ID/g and 0.2528 % ID/g. For the same molecule, the “Organ distribution, Pancreas, individual mice 1-5” value (96 h after i.v. injection) was 0.09848 % ID/g and 0.377 % ID/g and 0.3055 % ID/g and 0.3162 % ID/g and 0.3335 % ID/g, the “Organ distribution, Small Intestine, individual mice 1-5” value (96 h after i.v. injection) was 0.04372 % ID/g and 0.0577 % ID/g and 0.03752 % ID/g and 0.04431 % ID/g and 0.04136 % ID/g and the “Organ distribution, Spleen, individual mice 1-5” value (96 h after i.v. injection) was 0.4837 % ID/g and 0.394 % ID/g and 0.4426 % ID/g and 0.4348 % ID/g and 0.5397 % ID/g. For the same molecule, the “Organ distribution, Stomach, individual mice 1-5” value (96 h after i.v. injection) was 0.03442 % ID/g and 0.04708 % ID/g and 0.03448 % ID/g and 0.02845 % ID/g and 0.02366 % ID/g, the “Organ distribution, Tumor, individual mice 1-5” value (96 h after i.v. injection) was 4.043 % ID/g and 4.078 % ID/g and 6.74 % ID/g and 4.581 % ID/g and 4.845 % ID/g and the “Organ distribution, Blood, Mean” value (96 h after i.v. injection) was 0.1876 % ID/g. The “Organ distribution, Bone, Mean” value (96 h after i.v. injection) was 0.9027 % ID/g, the “Organ distribution, Heart, Mean” value (96 h after i.v. injection) was 0.4333 % ID/g and the “Organ distribution, Kidneys, Mean” value (96 h after i.v. injection) was 1.4978 % ID/g. For the same molecule, the “Organ distribution, Large Intestine, Mean” value (96 h after i.v. injection) was 0.05332 % ID/g, the “Organ distribution, Liver, Mean” value (96 h after i.v. injection) was 0.7855 % ID/g and the “Organ distribution, Lungs, Mean” value (96 h after i.v. injection) was 0.4056 % ID/g. The “Organ distribution, Muscle, Mean” value (96 h after i.v. injection) was 0.3258 % ID/g, the “Organ distribution, Pancreas, Mean” value (96 h after i.v. injection) was 0.2861 % ID/g and the “Organ distribution, Small Intestine, Mean” value (96 h after i.v. injection) was 0.04492 % ID/g. The “Organ distribution, Spleen, Mean” value (96 h after i.v. injection) was 0.459 % ID/g, the “Organ distribution, Stomach, Mean” value (96 h after i.v. injection) was 0.03362 % ID/g and the “Organ distribution, Tumor, Mean” value (96 h after i.v. injection) was 4.857 % ID/g. The “uptake by other organs (other than kidneys and tumor)” value (96 h post injection) was under 1 % ID/g.
